# From PubChem BioAssay (NCI)
#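 The compound was tested at five concentrations on cells cultured in 96-well plates, with a 48-hour exposure period. At the TGI there is no net growth.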
# Key:
# Assay in all cases: NCI tumour cell line growth inhibition, 48 h
# 786-0 renal = test system: 786-0 renal
# A498 renal = test system: A498 renal
# A549 NSCLC = test system: A549 NSCLC
# ACHN renal = test system: ACHN renal
# CAKI-1 renal = test system: CAKI-1 renal
# CCRF-CEM leukemia = test system: CCRF-CEM leukemia
# COLO 205 colon = test system: COLO 205 colon
# DU-145 prostate = test system: DU-145 prostate
# EKVX NSCLC = test system: EKVX NSCLC
# HCT-116 colon = test system: HCT-116 colon
# HCT-15 colon = test system: HCT-15 colon
# HL-60(TB) leukemia = test system: HL-60(TB) leukemia
# HOP-62 NSCLC = test system: HOP-62 NSCLC
# HOP-92 NSCLC = test system: HOP-92 NSCLC
# HS 578T breast = test system: HS 578T breast
# HT29 colon = test system: HT29 colon
# IGROV1 ovarian = test system: IGROV1 ovarian
# K-562 leukemia = test system: K-562 leukemia
# KM12 colon = test system: KM12 colon
# LOX IMVI melanoma = test system: LOX IMVI melanoma
# M14 melanoma = test system: M14 melanoma
# MALME-3M melanoma = test system: MALME-3M melanoma
# MCF7 breast = test system: MCF7 breast
# MDA-MB-231 breast = test system: MDA-MB-231 breast
# MDA-MB-435 = test system: MDA-MB-435
# MDA-N = test system: MDA-N
# MOLT-4 leukemia = test system: MOLT-4 leukemia
# NCI-H226 lung = test system: NCI-H226 lung
# NCI-H23 lung = test system: NCI-H23 lung
# NCI-H460 lung = test system: NCI-H460 lung
# NCI-H522 lung = test system: NCI-H522 lung
# OVCAR-3 ovarian = test system: OVCAR-3 ovarian
# OVCAR-4 ovarian = test system: OVCAR-4 ovarian
# OVCAR-5 ovarian = test system: OVCAR-5 ovarian
# OVCAR-8 ovarian = test system: OVCAR-8 ovarian
# PC-3 prostate = test system: PC-3 prostate
# RXF 393 renal = test system: RXF 393 renal
# SF-268 CNS = test system: SF-268 CNS
# SF-295 CNS = test system: SF-295 CNS
# SF-539 CNS = test system: SF-539 CNS
# SK-MEL-2 melanoma = test system: SK-MEL-2 melanoma
# SK-MEL-28 melanoma = test system: SK-MEL-28 melanoma
# SK-MEL-5 melanoma = test system: SK-MEL-5 melanoma
# SK-OV-3 ovarian = test system: SK-OV-3 ovarian
# SN12C renal = test system: SN12C renal
# SNB-19 CNS = test system: SNB-19 CNS
# SNB-75 CNS = test system: SNB-75 CNS
# SR leukemia = test system: SR leukemia
# SW-620 colon = test system: SW-620 colon
# T-47D breast = test system: T-47D breast
# TK-10 renal = test system: TK-10 renal
# U251 CNS = test system: U251 CNS
# UACC-257 melanoma = test system: UACC-257 melanoma
# UACC-62 melanoma = test system: UACC-62 melanoma
# UO-31 renal = test system: UO-31 renal
smiles,measurement,setting,value
COc1ccc(Oc2cccc(C3C4C(=O)N(c5ccc(C)c(Cl)c5)C(=O)C4ON3C(C(N)=O)c3ccccc3)c2)cc1 (stereo not given),TGI,786-0 renal,> 50 µM
same,TGI,A498 renal,> 50 µM
same,TGI,A549 NSCLC,> 50 µM
same,TGI,ACHN renal,> 50 µM
same,TGI,CAKI-1 renal,> 50 µM
same,TGI,CCRF-CEM leukemia,> 50 µM
same,TGI,COLO 205 colon,42.6 µM
same,TGI,DU-145 prostate,44.5 µM
same,TGI,EKVX NSCLC,26.6 µM
same,TGI,HCT-116 colon,45.2 µM
same,TGI,HCT-15 colon,25.9 µM
same,TGI,HL-60(TB) leukemia,> 50 µM
same,TGI,HOP-62 NSCLC,> 50 µM
same,TGI,HOP-92 NSCLC,> 50 µM
same,TGI,HS 578T breast,> 50 µM
same,TGI,HT29 colon,19.8 µM
same,TGI,IGROV1 ovarian,> 50 µM
same,TGI,K-562 leukemia,> 50 µM
same,TGI,KM12 colon,> 50 µM
same,TGI,LOX IMVI melanoma,> 50 µM
same,TGI,M14 melanoma,> 50 µM
same,TGI,MALME-3M melanoma,> 50 µM
same,TGI,MCF7 breast,47.9 µM
same,TGI,MDA-MB-231 breast,> 50 µM
same,TGI,MDA-MB-435,> 50 µM
same,TGI,MDA-N,23.6 µM
same,TGI,MOLT-4 leukemia,43.4 µM
same,TGI,NCI-H226 lung,44.8 µM
same,TGI,NCI-H23 lung,20.2 µM
same,TGI,NCI-H460 lung,> 50 µM
same,TGI,NCI-H522 lung,32.6 µM
same,TGI,OVCAR-3 ovarian,> 50 µM
same,TGI,OVCAR-4 ovarian,> 50 µM
same,TGI,OVCAR-5 ovarian,> 50 µM
same,TGI,OVCAR-8 ovarian,> 50 µM
same,TGI,PC-3 prostate,> 50 µM
same,TGI,RXF 393 renal,30.1 µM
same,TGI,SF-268 CNS,> 50 µM
same,TGI,SF-295 CNS,> 50 µM
same,TGI,SF-539 CNS,21.8 µM
same,TGI,SK-MEL-2 melanoma,38.3 µM
same,TGI,SK-MEL-28 melanoma,> 50 µM
same,TGI,SK-MEL-5 melanoma,32.2 µM
same,TGI,SK-OV-3 ovarian,> 50 µM
same,TGI,SN12C renal,29.3 µM
same,TGI,SNB-19 CNS,> 50 µM
same,TGI,SNB-75 CNS,26.2 µM
same,TGI,SR leukemia,35.6 µM
same,TGI,SW-620 colon,> 50 µM
same,TGI,T-47D breast,33 µM
same,TGI,TK-10 renal,> 50 µM
same,TGI,U251 CNS,> 50 µM
same,TGI,UACC-257 melanoma,29.3 µM
same,TGI,UACC-62 melanoma,34.9 µM
same,TGI,UO-31 renal,> 50 µM
